Assay results published in patent US20130204033A1, “ANTIPROLIFERATIVE COMPOUNDS, CONJUGATES THEREOF, METHODS THEREFOR, AND USES THEREOF” (Medarex, Inc., priority 2009, published 2013).
Where two headings read alike, the source gives them in different places.

How the values were obtained:
Assay type in all cases: cell-based, human
[1] = tested on: OVCAR3; assay: 3H thymidine proliferation assay, OVCAR3
Experimental: (§1) This example generally describes the procedures used to assay the antiproliferative activity of compounds of this invention or their conjugates. Human tumor cell lines were obtained from the American Type Culture Collection (ATCC), P.O. Box 1549, Manassas, Va. 20108, USA, and cultured according to instruction from the ATCC. Cells were seeded at 1.0×10^3 or 1.0×10^4 cells/well in 96-well plates for 3 h for ATP assays or ^3H thymidine assays, respectively. 1:3 serial dilutions of free (unconjugated) compounds or their conjugates were added to the wells. Plates were allowed to incubate for 24 to 72 h. The ^3H thymidine plates were pulsed with 1.0 μCi of ^3H-thymidine per well for the last 24 hours of the total incubation period, harvested, and read on a Top Count Scintillation Counter (Packard Instruments, Meriden, Conn.). ATP levels in the ATP plates were measured using the […]-GLO® Luminescent Cell Viability kit following the manufacturer's manual and read on a GLOMAX® 20/20 luminometer (both from Promega, Madison, Wis., USA). The EC50 values—the concentration at which an agent inhibits or reduces cell proliferation by 50% —were determined using PRISM™ software, version 4.0 (GraphPad Software, La Jolla, Calif., USA).
(§2) Using the ^3H thymidine or the ATP luminescence assay, or both, the activities of compounds of this invention were assayed against the following cancer cell lines: HCT-15 (colorectal cancer, multi-drug resistant (MDR)); Hep3B (liver cancer); LNCaP (prostate cancer, androgen receptor positive (AR^+)); MDA-MB-231 (breast cancer, estrogen receptor, progesterone receptor, and Her2 negative (triple negative)); A2058 (melanoma); U-87 MG (glioblastoma); NCI-H460 (NSCLC); A549 (NSCLC); HPAC (pancreatic cancer, primary); PC3 (prostate cancer, AR); BT474 (breast cancer, Her2 highly positive (Her2hi)); SKOV3 (ovarian cancer, Her2hi); 786-O (renal cancer); UO-31 (renal cancer, MDR); NCI-H740 (SCLC); DMS53 (SCLC); SK-BR3 (breast cancer, Her2hi); ZR-75 (breast cancer, estrogen receptor positive); OVCAR3 (ovarian cancer); HL-60 (APL); OVCAR8/Adr (ovarian cancer, MDR); CEM-Cl (ALL); Nomo-1 (AML); RPMI-8226 (MM)); Raji (lymphoma); SW-480 (colorectal cancer, metastatic); SW-620 (colorectal cancer); and H226 (lung cancer). (Not all compounds were assayed against all cell lines.)
(§3) Table 2 provides the data for proliferation assays using the ^3H thymidine method, with an incubation period of 72 h.

[2] = tested on: Raji; assay: ATP luminescence proliferation assay, Raji
Experimental: as §1, §2
(§4) Table 3 provides the data for the ATP luminescence proliferation assays, with an incubation period of 48, 72, or 96 h, as noted.

[3] = tested on: Nomo-1; assay: ATP luminescence proliferation assay, Nomo-1
Experimental: as §1, §2, §4

[4] = tested on: NCI-H460; assay: ATP luminescence proliferation assay, NCI-H460
Experimental: as §1, §2, §4

[5] = tested on: HCT-15; assay: 3H thymidine proliferation assay, HCT-15
Experimental: as §1, §2, §3

[6] = tested on: RPMI-8226; assay: 3H thymidine proliferation assay, RPMI-8226
Experimental: as §1, §2, §3

[7] = tested on: SKOV3; assay: 3H thymidine proliferation assay, SKOV3
Experimental: as §1, §2, §3

[8] = tested on: OVCAR8; assay: 3H thymidine proliferation assay, OVCAR8
Experimental: as §1, §2, §3

[9] = tested on: 786-O; assay: ATP luminescence proliferation assay, 786-O
Experimental: as §1, §2
FIGS. 12a and 12b show illustrative plots for ATP luminescence proliferation assays for a second set of compounds of this invention, against HL-60 and 786-O cells, respectively, with an incubation period of 72 h. FIGS. 12c and 12d show the plots for ^3H thymidine proliferation assays for the same set of compounds, again against HL-60 and 786-O cells, respectively, with a 72 h incubation period. In each instance, doxorubicin was used as a comparative compound.
as §4

[10] = tested on: OVCAR3; assay: ATP luminescence proliferation assay, OVCAR3
Experimental: as §1, §2, §4

[11] = tested on: BT474; assay: 3H thymidine proliferation assay, BT474
Experimental: as §1, §2, §3

[12] = tested on: Hep3B; assay: ATP luminescence proliferation assay, Hep3B; conditions: Homo sapiens, 48 h, read-out: EC50 Hep3B (48 h), ATP luminescence, Hep3B, 48 h incubation
Experimental: as §1, §2, §4

[13] = tested on: HCT-15; assay: ATP luminescence proliferation assay, HCT-15
Experimental: as §1, §2, §4

[14] = tested on: SW-620; assay: ATP luminescence proliferation assay, SW-620
Experimental: as §1, §2, §4

[15] = tested on: MDA-MB-231; assay: 3H thymidine proliferation assay, MDA-MB-231
Experimental: as §1, §2, §3

[16] = tested on: HPAC; assay: 3H thymidine proliferation assay, HPAC
Experimental: as §1, §2, §3

[17] = tested on: 786-O; assay: 3H thymidine proliferation assay, 786-O
Experimental: as §1, §2, §3

[18] = Homo sapiens, OVCAR-3, read-out: EC50, OVCAR3, 3H thymidine method, 72 h incubation
[19] = Homo sapiens, 72 h, read-out: EC50 Raji (72 h), ATP luminescence, Raji, 72 h incubation
[20] = Homo sapiens, NOMO-1, 72 h, read-out: EC50 Nomo-1 (72 h), ATP luminescence, Nomo-1, 72 h incubation
[21] = Homo sapiens, NCI-H460, 48 h, read-out: EC50 NCI-H460 (48 h), ATP luminescence, NCI-H460, 48 h incubation
[22] = Homo sapiens, HCT-15, read-out: EC50, HCT-15, 3H thymidine method, 72 h incubation
[23] = Homo sapiens, RPMI-8226, read-out: EC50, RPMI-8226, 3H thymidine method, 72 h incubation
[24] = Homo sapiens, SK-OV-3, read-out: EC50, SKOV3, 3H thymidine method, 72 h incubation
[25] = Homo sapiens, OVCAR-8, read-out: EC50, OVCAR8, 3H thymidine method, 72 h incubation
[26] = Homo sapiens, 786-0, 72 h, read-out: EC50 786-O (72 h), ATP luminescence, 786-O, 72 h incubation
[27] = Homo sapiens, OVCAR-3, 48 h, read-out: EC50 OVCAR3 (48 h), ATP luminescence, OVCAR3, 48 h incubation
[28] = Homo sapiens, BT-474, read-out: EC50, BT474, 3H thymidine method, 72 h incubation
[29] = Homo sapiens, HCT-15, 48 h, read-out: EC50 HCT-15 (48 h), ATP luminescence, HCT-15, 48 h incubation
[30] = Homo sapiens, SW-620, 96 h, read-out: EC50 SW-620 (96 h), ATP luminescence, SW-620, 96 h incubation
[31] = Homo sapiens, MDA-MB-231, read-out: EC50, MDA-MB-231, 3H thymidine method, 72 h incubation
[32] = Homo sapiens, HPAC, read-out: EC50, HPAC, 3H thymidine method, 72 h incubation

| Compound | EC50 [1, 18] | EC50 [2, 19] | EC50 [3, 20] | EC50 [4, 21] | EC50 [5, 22] | EC50 [6, 23] | EC50 [7, 24] | EC50 [8, 25] | EC50 [9, 26] | EC50 [10, 27] | EC50 [11, 28] | EC50 [12] | EC50 [13, 29] | EC50 [14, 30] | EC50 [15, 31] | EC50 [16, 32] | other results |
| --- | --- | --- | --- | --- | --- | --- | --- | --- | --- | --- | --- | --- | --- | --- | --- | --- | --- |
| CC[C@H](C)[C@H](NC(=O)[C@H]1CCCCN1C)C(=O)N(C)[C@H](C[C@@H](OC)c1nc(C(=O)NC(Cc2ccccc2)C[C@H](C)C(=O)O)cs1)C(C)C (stereo partly shown) [Compound 15] | > 0.1 µM | 0.0025 µM | 0.0027 µM | 0.0067 µM | 0.067 µM | 0.0033 µM | 0.0026 µM | 0.423 µM | 0.0094 µM | > 0.1 µM | 0.0071 µM | 0.0063 µM | 0.04 µM | 0.0037 µM | 0.0013 µM | 0.003 µM | – |
| CC[C@H](C)[C@H](NC(=O)[C@H]1CCCCN1C)C(=O)N(C)[C@H](C[C@@H](OC)c1nc(C(=O)N[C@@H](Cc2ccccc2)C(=O)OC)cs1)C(C)C [Compound 16] | – | – | – | – | – | – | – | – | – | – | – | – | – | – | – | – | EC50 ([1]; 3H thymidine method, 72 h incubation, read-out: EC50, OVCAR3): > 0.1 µM; EC50 ([2]; ATP luminescence, 72 h incubation, read-out: EC50 Raji (72 h)): 0.003 µM; EC50 ([3]; ATP luminescence, Nomo-1, 72 h incubation, read-out: EC50 Nomo-1 (72 h)): 0.0031 µM; EC50 ([4]; ATP luminescence, NCI-H460, 48 h incubation, read-out: EC50 NCI-H460 (48 h)): 0.069 µM; EC50 ([5]; 3H thymidine method, 72 h incubation, read-out: EC50, HCT-15): 0.284 µM; EC50 ([6]; 3H thymidine method, 72 h incubation, read-out: EC50, RPMI-8226): 0.022 µM; EC50 ([7]; 3H thymidine method, 72 h incubation, read-out: EC50, SKOV3): 0.044 µM; EC50 ([8]; 3H thymidine method, 72 h incubation, read-out: EC50, OVCAR8): 1.87 µM; EC50 ([9]; ATP luminescence, 786-O, 72 h incubation, read-out: EC50 786-O (72 h)): 0.036 µM; EC50 ([17]; 3H thymidine method, 72 h incubation, read-out: EC50, 786-O): 0.019 µM; EC50 ([10]; ATP luminescence, OVCAR3, 48 h incubation, read-out: EC50 OVCAR3 (48 h)): > 0.1 µM; EC50 ([11]; 3H thymidine method, 72 h incubation, read-out: EC50, BT474): > 0.1 µM; EC50 ([13]; ATP luminescence, HCT-15, 48 h incubation, read-out: EC50 HCT-15 (48 h)): 0.157 µM; EC50 ([14]; ATP luminescence, SW-620, 96 h incubation, read-out: EC50 SW-620 (96 h)): 0.029 µM; EC50 ([15]; 3H thymidine method, 72 h incubation, read-out: EC50, MDA-MB-231): > 0.1 µM; EC50 ([16]; 3H thymidine method, 72 h incubation, read-out: EC50, HPAC): > 0.1 µM |
| CCCC(NC(=O)c1csc([C@@H](C[C@H](C(C)C)N(C)C(=O)[C@@H](NC(=O)[C@H]2CCCCN2C)[C@@H](C)CC)OC)n1)C(=O)OC (stereo partly shown) [Compound 17] | > 0.1 µM | 0.027 µM | 0.0039 µM | 0.069 µM | 0.392 µM | 0.047 µM | 0.091 µM | 2.97 µM | 0.073 µM | > 0.1 µM | > 0.1 µM | > 0.1 µM | 0.443 µM | 0.065 µM | 0.084 µM | > 0.1 µM | EC50 ([17]; Homo sapiens, 786-0, read-out: EC50, 786-O, 3H thymidine method, 72 h incubation): 0.032 µM |
